# Measured values published in patent US11896706B2, “Composition for preventing hair loss or promoting hair growth, comprising, as active ingredient, mixed extract of cucumber, eggplant and snail extracts as active ingredient” (OGADAL INC., priority 2020, dated 2024).
# Marks after values point to notes of the source that are not given here.
# Key:
# [1] = tested on: hepatocyte growth factor (HGF); assay: RT-PCR expression of hair-related gene HGF in dermal papilla cells; assay type: cell-based; settings: 1 μg/mL minoxidil, 18 hours
# Description: (§1) RT-PCR (reverse transcription polymerase chain reaction) was conducted in order to investigate the effect on the expression of hair-related genes, insulin-like growth factor 1 (IGF-1), hepatocyte growth factor (HGF) and keratinocyte growth factor (KGF). Dermal papilla cells were seeded onto a 100-mm cell culture dish at a density of 80% and then cultured for 24 hours at 37° C. in a 5% CO2 incubator. DMEM (Dulbecco's modified Eagle's medium, BRL, USA) containing 10% bovine serum was used as a medium. After adding 100 μg/mL of a sample (Examples 1-1, 1-2, 1-3 and 1-4; Comparative Examples 1-1, 1-2 and 1-3; Examples 2-1, 2-2 and 2-3) or 1 μg/mL minoxidil as a positive control group, the cells were cultured for 18 hours and RNA was isolated by adding 1 mL of Trizol (Invitrogen, USA) according to the Promega's method. After quantifying RNA at 260 nm using a UV detector, RT-PCR was conducted. The RT-PCR was conducted using a RT-PCR kit (All-in-one RT-PCR kit, SuperBio, Korea) under the condition of 40 cycles of reverse transcription at 50° C. for 30 minutes followed by inactivation of reverse transcriptase at 96° C. for 3 minutes, 94° C. for 30 seconds, 58° C. for 30 seconds and 72° C. for 1 minute. The result was represented as percentage (%) of expression relative to the negative control group (Table 3).
# [2] = tested on: insulin-like growth factor 1 (IGF-1); assay: RT-PCR expression of hair-related gene IGF-1 in dermal papilla cells; assay type: cell-based; settings: 1 μg/mL minoxidil, 18 hours
# Description: as §1
# [3] = tested on: keratinocyte growth factor (KGF); assay: RT-PCR expression of hair-related gene KGF in dermal papilla cells; assay type: cell-based; settings: 1 μg/mL minoxidil, 18 hours
# Description: as §1
# [4] = tested on: C57BL/6 mice depilated on the back; assay: Animal experiment for hair growth-promoting effect in depilated mice; assay type: in vivo, mouse; settings: 5 wt % minoxidil, 0.2 mL topical once a day
# Description: The hair growth-promoting effect of the composition of the present disclosure was investigated using C57BL/6 mice. 49- to 51-day-old C57BL/6N mice, in the second […], were depilated completely on the back using wax. While applying 0.2 mL of Example 2-1 or 2-3 at a solid content of 1 wt % or 20 wt %, or 5 wt % minoxidil as a positive control group, diluted in water, once a day for 16 days, hair-growing effect was monitored. Distilled water was used as a negative control group. The hair growth index with time was evaluated by the 3-point scale (see Table 4).
structure (smiles),measurement,setting,value
"Nc1cc(N2CCCCC2)nc(N)[n+]1[O-] [Minoxidil, minoxidil]",HGF expression relative to the negative control group,[1],134.6%**
same,IGF-1 expression relative to the negative control group,[2],119.0%**
same,KGF expression relative to the negative control group,[3],120.2%**
same,Hair growth index (3-point scale),[4]; Day 0,0 points
same,Hair growth index (3-point scale),[4]; Day 12,1.22 ± 0.26 points
same,Hair growth index (3-point scale),[4]; Day 16,2.66 ± 0.23 points
